These results are taken from patent US9802937B2, “Substituted pyrazolo{4,3-D}pyrimidines as kinase inhibitors” (ORIGENIS GMBH, priority 2011, dated 2017).

SMILES strings stand for the structures.

One test concerns the target LRRK2 (Homo sapiens, UniProt Q5S007). The experiment in a line: LRRK2-LRRK2 G2019S-Assay (LanthaScreen Eu Kinase Binding Assay). To be noted: 5 nM LRRK2 or their mutants, 10 nM tracer 236, RT 1 h; read-out: LRRK2 Activities: IC50. The gist of the method:
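TR-FRET tracer-displacement binding assay with 5 nM LRRK2 or mutant, 2 nM Eu-anti-GST antibody and 10 nM tracer 236 in kinase buffer A. Incubated 1 h at RT; 665/615 nm emission ratio read (ex 340 nm). IC50 from variable-slope sigmoidal fit.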
(Time-resolved FRET reads energy transfer from a long-lived donor to a nearby acceptor.)

The next test concerns the target T1, SYK kinase (Homo sapiens, UniProt P43405).
T1 construct: purchased Invitrogen, Carlsbad
The experiment in a line: SYK Assay (OMNIA KINASE ASSAY, SOX peptide fluorescence). It is filed as biochemical. To be noted: apparent Ki calculated from the IC50 using the Cheng-Prusoff equation; 1 mM ATP, 30° C.; read-out: SYK Activities: Ki. The gist of the method: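 Continuous Omnia assay: SYK phosphorylation of SOX-labelled Tyr 7 peptide (10 µM) with 1 mM ATP and 0.2 mM DTT at 30 °C. Fluorescence (ex 360/em 485 nm) read every 30 s for 30 min. Reaction velocity versus inhibitor concentration gives IC50, converted to apparent Ki by Cheng-Prusoff.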

Chain of LRRK2 (Q5S007 970-2527 limits assumed): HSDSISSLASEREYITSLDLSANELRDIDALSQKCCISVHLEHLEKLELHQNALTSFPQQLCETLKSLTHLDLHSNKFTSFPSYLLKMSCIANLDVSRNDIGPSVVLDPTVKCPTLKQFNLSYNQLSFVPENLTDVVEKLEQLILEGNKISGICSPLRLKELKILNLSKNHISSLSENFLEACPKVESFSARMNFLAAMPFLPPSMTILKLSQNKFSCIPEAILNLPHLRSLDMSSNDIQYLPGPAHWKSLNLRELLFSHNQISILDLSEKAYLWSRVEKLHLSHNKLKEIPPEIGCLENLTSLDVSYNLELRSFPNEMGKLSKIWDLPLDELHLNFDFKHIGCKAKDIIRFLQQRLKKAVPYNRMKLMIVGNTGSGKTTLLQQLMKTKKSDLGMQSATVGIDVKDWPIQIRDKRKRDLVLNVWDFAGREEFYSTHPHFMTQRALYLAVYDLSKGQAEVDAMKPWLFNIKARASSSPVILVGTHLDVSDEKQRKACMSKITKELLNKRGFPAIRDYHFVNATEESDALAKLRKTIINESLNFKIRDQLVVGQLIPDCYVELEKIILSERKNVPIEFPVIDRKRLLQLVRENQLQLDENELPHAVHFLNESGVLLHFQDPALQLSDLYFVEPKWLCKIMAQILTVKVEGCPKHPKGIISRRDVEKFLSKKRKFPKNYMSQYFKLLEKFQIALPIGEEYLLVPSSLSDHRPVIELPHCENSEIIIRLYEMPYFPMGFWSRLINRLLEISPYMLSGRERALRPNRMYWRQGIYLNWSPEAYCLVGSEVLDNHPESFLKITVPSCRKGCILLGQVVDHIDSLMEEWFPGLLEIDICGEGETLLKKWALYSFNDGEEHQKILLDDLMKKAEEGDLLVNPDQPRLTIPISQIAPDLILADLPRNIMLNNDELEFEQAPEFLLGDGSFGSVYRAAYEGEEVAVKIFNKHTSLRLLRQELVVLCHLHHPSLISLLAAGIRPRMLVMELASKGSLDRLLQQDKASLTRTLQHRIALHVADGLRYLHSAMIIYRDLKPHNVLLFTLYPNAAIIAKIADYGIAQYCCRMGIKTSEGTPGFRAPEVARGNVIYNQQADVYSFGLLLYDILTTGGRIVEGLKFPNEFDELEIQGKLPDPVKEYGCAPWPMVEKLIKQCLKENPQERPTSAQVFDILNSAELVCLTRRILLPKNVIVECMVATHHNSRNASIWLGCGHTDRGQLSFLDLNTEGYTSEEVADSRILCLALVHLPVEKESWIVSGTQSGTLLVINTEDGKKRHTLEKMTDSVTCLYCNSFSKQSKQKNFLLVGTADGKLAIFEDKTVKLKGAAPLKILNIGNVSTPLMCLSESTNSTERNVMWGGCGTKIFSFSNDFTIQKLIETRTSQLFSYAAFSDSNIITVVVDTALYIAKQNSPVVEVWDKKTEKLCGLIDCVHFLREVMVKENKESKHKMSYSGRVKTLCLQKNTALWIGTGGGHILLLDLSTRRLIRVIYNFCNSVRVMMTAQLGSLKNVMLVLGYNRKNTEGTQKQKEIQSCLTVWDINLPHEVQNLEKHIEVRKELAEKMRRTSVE

The IC50 is the concentration needed to halve the response being measured. On to `O=C(c1ccc(Nc2nc(-c3ccsc3)nc3cn[nH]c23)cc1)N1CCCC1` [Example #142, pyrrolidin-1-yl(4-((5-(thiophen-3-yl)-1H-pyrazolo[4,3-d]pyrimidin-7-yl)amino)phenyl)methanone], for which the IC50 at LRRK2 lay in the range of 100 to 1000 nM. Moreover, the Ki at SYK kinase is 10 to 100 nM.

Consider `c1cc(-c2nc(Nc3ccc(N4CCSCC4)cc3)c3[nH]ncc3n2)cs1` [Example #145, N-(4-thiomorpholinophenyl)-5-(thiophen-3-yl)-1H-pyrazolo[4,3-d]pyrimidin-7-amine], for which, at LRRK2, the IC50 was in the range of 10 to 100 nM. Besides, the Ki at SYK kinase was 10 to 100 nM.

Take `O=C1COc2ccc(Nc3nc(-c4ccsc4)nc4cn[nH]c34)cc2N1` [Example #146, 6-((5-(thiophen-3-yl)-1H-pyrazolo[4,3-d]pyrimidin-7-yl)amino)-2H-benzo[b][1,4]oxazin-3(4H)-one]: the IC50 at LRRK2 lay within 100 to 1000 nM. For the same compound, the Ki on SYK kinase is 10 to 100 nM.

`O=C(O)c1cccc(-c2nc(Nc3ccc(N4CCOCC4)cc3)c3[nH]ncc3n2)c1` [Example #156, 3-(7-((4-morpholinophenyl)amino)-1H-pyrazolo[4,3-d]pyrimidin-5-yl)benzoic acid]: at LRRK2, the IC50 is 100 to 1000 nM. In addition, the Ki at SYK kinase was 10 to 100 nM.

As for `O=C(c1ccc(Nc2nc(-c3ccsc3)nc3cn[nH]c23)cc1)N1CCOCC1` [Example #157, morpholino(4-((5-(thiophen-3-yl)-1H-pyrazolo[4,3-d]pyrimidin-7-yl)amino)phenyl)methanone], the half-maximal inhibitory concentration (IC50) at LRRK2 was in the range of 100 to 1000 nM. The Ki at SYK kinase was 10 to 100 nM.

Consider `O=C1CSc2ccc(Nc3nc(-c4ccsc4)nc4cn[nH]c34)cc2N1` [Example #158, 6-((5-(thiophen-3-yl)-1H-pyrazolo[4,3-d]pyrimidin-7-yl)amino)-2H-benzo[b][1,4]thiazin-3(4H)-one], for which the IC50 on LRRK2 lay in the range of 10 to 100 nM. In addition, at SYK kinase, the Ki is 10 to 100 nM.

On to `COc1ccc(-c2nc(Nc3ccc4c(c3)NC(=O)CC4)c3[nH]ncc3n2)cc1` [Example #159, 7-((5-(4-methoxyphenyl)-1H-pyrazolo[4,3-d]pyrimidin-7-yl)amino)-3,4-dihydroquinolin-2(1H)-one], for which, on LRRK2, the IC50 lay within 100 to 1000 nM. In addition, the Ki on SYK kinase was 10 to 100 nM.

For the compound `O=C1COc2ccc(Nc3nc(-c4cccs4)nc4cn[nH]c34)cc2N1` [Example #162, 6-((5-(thiophen-2-yl)-1H-pyrazolo[4,3-d]pyrimidin-7-yl)amino)-2H-benzo[b][1,4]oxazin-3(4H)-one], the half-maximal inhibitory concentration (IC50) at LRRK2 was in the range of 100 to 1000 nM. Besides, the Ki on SYK kinase was less than 10 nM.

Turning to `COc1ccc(-c2nc(Nc3ccc4c(c3)NC(=O)CCC4)c3[nH]ncc3n2)cc1` [Example #164, 8-((5-(4-methoxyphenyl)-1H-pyrazolo[4,3-d]pyrimidin-7-yl)amino)-4,5-dihydro-1H-benzo[b]azepin-2(3H)-one], the IC50 on LRRK2 lay in the range of 10 to 100 nM. On SYK kinase, the Ki was less than 10 nM.

As to `CN1CCCc2ccc(Nc3nc(-c4cccs4)nc4cn[nH]c34)cc21` [Example #166, 1-methyl-N-(5-(thiophen-2-yl)-1H-pyrazolo[4,3-d]pyrimidin-7-yl)-1,2,3,4-tetrahydroquinolin-7-amine], the IC50 on LRRK2 is 10 to 100 nM. At SYK kinase, the Ki was 10 to 100 nM.

Turning to `COc1ccc(-c2nc(Nc3ccc(N4CCS(=O)(=O)CC4)cc3)c3[nH]ncc3n2)cc1` [Example #169, 4-(4-((5-(4-methoxyphenyl)-1H-pyrazolo[4,3-d]pyrimidin-7-yl)amino)phenyl)thiomorpholine 1,1-dioxide], the concentration for half-maximal inhibition (IC50) at LRRK2 lay in the range of 100 to 1000 nM. In addition, the Ki on SYK kinase was less than 10 nM.

As to `COc1ccc(-c2nc(Nc3ccc(N4CCN(C(C)=O)CC4)cc3)c3[nH]ncc3n2)cc1` [Example #170, 1-(4-(4-((5-(4-methoxyphenyl)-1H-pyrazolo[4,3-d]pyrimidin-7-yl)amino)phenyl)piperazin-1-yl)ethan-1-one], at LRRK2, the IC50 was in the range of 100 to 1000 nM. The Ki at SYK kinase is less than 10 nM.

Consider `COc1ccc(-c2nc(Nc3ccc4c(c3)NC(=O)CO4)c3[nH]ncc3n2)cc1` [Example #171, 6-((5-(4-methoxyphenyl)-1H-pyrazolo[4,3-d]pyrimidin-7-yl)amino)-2H-benzo[b][1,4]oxazin-3(4H)-one], for which the IC50 at LRRK2 was 100 to 1000 nM. Further, at SYK kinase, the Ki was 10 to 100 nM.

For `CC1(C)CNc2cc(Nc3nc(-c4cccs4)nc4cn[nH]c34)ccc2S1` [Example #173, 2,2-dimethyl-N-(5-(thiophen-2-yl)-1H-pyrazolo[4,3-d]pyrimidin-7-yl)-3,4-dihydro-2H-benzo[b][1,4]thiazin-6-amine], the concentration for half-maximal inhibition (IC50) on LRRK2 was in the range of 100 to 1000 nM. Moreover, on SYK kinase, the Ki is 10 to 100 nM.

As to `COc1ccc(Nc2nc(-c3cccc(S(N)(=O)=O)c3)nc3cn[nH]c23)cc1OC` [Example #183, 3-(7-((3,4-dimethoxyphenyl)amino)-1H-pyrazolo[4,3-d]pyrimidin-5-yl)benzenesulfonamide], the IC50 at LRRK2 is 10 to 100 nM. For the same compound, the Ki on SYK kinase is less than 10 nM.

With `CC(=O)N1CCN(c2ccc(Nc3nc(-c4nccs4)nc4cn[nH]c34)cc2)CC1` [Example #184, 1-(4-(4-((5-(thiazol-2-yl)-1H-pyrazolo[4,3-d]pyrimidin-7-yl)amino)phenyl)piperazin-1-yl)ethan-1-one], the half-inhibitory concentration (IC50) on LRRK2 is 10 to 100 nM. Moreover, the Ki on SYK kinase was less than 10 nM.

On to `COc1ccc(Nc2nc(-c3nccs3)nc3cn[nH]c23)cc1OC` [Example #185, N-(3,4-dimethoxyphenyl)-5-(thiazol-2-yl)-1H-pyrazolo[4,3-d]pyrimidin-7-amine], for which, at LRRK2, the IC50 lay in the range of 10 to 100 nM. Besides, at SYK kinase, the Ki is 10 to 100 nM.

With `O=C1CCc2ccc(Nc3nc(-c4nccs4)nc4cn[nH]c34)cc2N1` [Example #186, 7-((5-(thiazol-2-yl)-1H-pyrazolo[4,3-d]pyrimidin-7-yl)amino)-3,4-dihydroquinolin-2(1H)-one], the half-inhibitory concentration (IC50) on LRRK2 is 100 to 1000 nM. At SYK kinase, the Ki was less than 10 nM.

Consider `COc1ccc(Nc2nc(-c3cccc(-c4nn[nH]n4)c3)nc3cn[nH]c23)cc1OC` [Example #193, 5-(3-(2H-tetrazol-5-yl)phenyl)-N-(3,4-dimethoxyphenyl)-1H-pyrazolo[4,3-d]pyrimidin-7-amine], for which the 50% inhibitory concentration (IC50) at LRRK2 is 100 to 1000 nM. For the same compound, the Ki on SYK kinase was less than 10 nM.

`COc1ccc(Nc2nc(-c3cccc(C(=O)O)c3)nc3cn[nH]c23)cc1OC` [Example #194, 3-(7-((3,4-dimethoxyphenyl)amino)-1H-pyrazolo[4,3-d]pyrimidin-5-yl)benzoic acid]: on LRRK2, the IC50 lay within 100 to 1000 nM. Also, on SYK kinase, the Ki was less than 10 nM.

In the case of `O=C1CCc2ccc(Nc3nc(-c4cccc(C(=O)O)c4)nc4cn[nH]c34)cc2N1` [Example #195, 3-(7-((2-oxo-1,2,3,4-tetrahydroquinolin-7-yl)amino)-1H-pyrazolo[4,3-d]pyrimidin-5-yl)benzoic acid], the concentration for half-maximal inhibition (IC50) at LRRK2 lay within 10 to 100 nM. Further, on SYK kinase, the Ki was less than 10 nM.

As to `O=C1CCc2ccc(Nc3nc(-c4cccc(-c5nn[nH]n5)c4)nc4cn[nH]c34)cc2N1` [Example #196, 7-((5-(3-(2H-tetrazol-5-yl)phenyl)-1H-pyrazolo[4,3-d]pyrimidin-7-yl)amino)-3,4-dihydroquinolin-2(1H)-one], the concentration for half-maximal inhibition (IC50) at LRRK2 was 100 to 1000 nM. Moreover, at SYK kinase, the Ki was less than 10 nM.

`CN1CCN(c2ccc(Nc3nc(-c4cscn4)nc4cn[nH]c34)cc2)CC1` [Example #197, N-(4-(4-methylpiperazin-1-yl)phenyl)-5-(thiazol-4-yl)-1H-pyrazolo[4,3-d]pyrimidin-7-amine]: the concentration for half-maximal inhibition (IC50) at LRRK2 lay within 100 to 1000 nM. Besides, at SYK kinase, the Ki is less than 10 nM.

As for `CC(=O)N1CCN(c2ccc(Nc3nc(-c4cscn4)nc4cn[nH]c34)cc2)CC1` [Example #198, 1-(4-(4-((5-(thiazol-4-yl)-1H-pyrazolo[4,3-d]pyrimidin-7-yl)amino)phenyl)piperazin-1-yl)ethan-1-one], the IC50 at LRRK2 was 100 to 1000 nM. Moreover, on SYK kinase, the Ki was less than 10 nM.

On to `COc1ccc(Nc2nc(-c3cscn3)nc3cn[nH]c23)cc1OC` [Example #199, N-(3,4-dimethoxyphenyl)-5-(thiazol-4-yl)-1H-pyrazolo[4,3-d]pyrimidin-7-amine], for which the IC50 at LRRK2 lay in the range of 10 to 100 nM. Besides, the Ki on SYK kinase is 10 to 100 nM.

Turning to `CN1CCN(c2ccc(Nc3nc(-c4cocn4)nc4cn[nH]c34)cc2)CC1` [Example #200, N-(4-(4-methylpiperazin-1-yl)phenyl)-5-(oxazol-4-yl)-1H-pyrazolo[4,3-d]pyrimidin-7-amine], the half-maximal inhibitory concentration (IC50) at LRRK2 fell in the range of 100 to 1000 nM. In addition, at SYK kinase, the Ki was less than 10 nM.

`CC(=O)N1CCN(c2ccc(Nc3nc(-c4cocn4)nc4cn[nH]c34)cc2)CC1` [Example #201, 1-(4-(4-((5-(oxazol-4-yl)-1H-pyrazolo[4,3-d]pyrimidin-7-yl)amino)phenyl)piperazin-1-yl)ethan-1-one]: the IC50 at LRRK2 lay in the range of 100 to 1000 nM. Besides, the Ki on SYK kinase is less than 10 nM.

Consider `COc1ccc(Nc2nc(-c3cocn3)nc3cn[nH]c23)cc1OC` [Example #202, N-(3,4-dimethoxyphenyl)-5-(oxazol-4-yl)-1H-pyrazolo[4,3-d]pyrimidin-7-amine], for which the IC50 on LRRK2 lay within 100 to 1000 nM. Further, the Ki at SYK kinase is 10 to 100 nM.

On to `CN1CCN(c2ccc(Nc3nc(-c4ncco4)nc4cn[nH]c34)cc2)CC1` [Example #203, N-(4-(4-methylpiperazin-1-yl)phenyl)-5-(oxazol-2-yl)-1H-pyrazolo[4,3-d]pyrimidin-7-amine], for which the IC50 on LRRK2 was in the range of 100 to 1000 nM. Further, the Ki at SYK kinase is less than 10 nM.

Consider `CC(=O)N1CCN(c2ccc(Nc3nc(-c4ncco4)nc4cn[nH]c34)cc2)CC1` [Example #204, 1-(4-(4-((5-(oxazol-2-yl)-1H-pyrazolo[4,3-d]pyrimidin-7-yl)amino)phenyl)piperazin-1-yl)ethan-1-one], for which, at LRRK2, the half-inhibitory concentration (IC50) fell in the range of 100 to 1000 nM. Further, the Ki on SYK kinase is less than 10 nM.
